# T1: Dorea PTS_EIIBCA (I9 PTS_EIIBCA) (uncultured bacterium, UniProt S6CP27)
# T1 construct: full-length single multidomain protein (domains B, C, A; ten predicted transmembrane helices)
# T1 sequence (S6CP27 1-643): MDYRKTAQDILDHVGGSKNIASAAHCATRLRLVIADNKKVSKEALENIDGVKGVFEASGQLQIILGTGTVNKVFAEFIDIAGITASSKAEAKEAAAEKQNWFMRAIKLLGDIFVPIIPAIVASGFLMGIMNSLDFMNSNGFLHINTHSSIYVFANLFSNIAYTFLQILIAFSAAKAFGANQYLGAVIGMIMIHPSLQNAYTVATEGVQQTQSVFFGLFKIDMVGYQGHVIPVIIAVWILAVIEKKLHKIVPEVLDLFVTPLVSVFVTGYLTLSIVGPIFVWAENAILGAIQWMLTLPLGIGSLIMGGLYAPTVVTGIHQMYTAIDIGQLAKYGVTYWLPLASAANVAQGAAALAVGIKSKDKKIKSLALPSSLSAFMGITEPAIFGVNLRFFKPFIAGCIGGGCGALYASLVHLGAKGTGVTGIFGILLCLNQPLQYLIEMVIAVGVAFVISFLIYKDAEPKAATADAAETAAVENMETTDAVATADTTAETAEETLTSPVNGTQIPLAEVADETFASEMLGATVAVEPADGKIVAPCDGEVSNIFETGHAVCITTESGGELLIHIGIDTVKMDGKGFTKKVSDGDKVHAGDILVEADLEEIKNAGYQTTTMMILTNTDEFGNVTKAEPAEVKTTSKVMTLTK
# Key:
# [1] = target: T1, Dorea PTS_EIIBCA (I9 PTS_EIIBCA); experiment: binding saturation on washed crude membranes; unbound kestose by HPAEC-PAD
# [2] = substrate: OC[C@H]1O[C@@](CO)(OC[C@@]2(O[C@H]3O[C@H](CO)[C@@H](O)[C@H](O)[C@H]3O)O[C@H](CO)[C@@H](O)[C@@H]2O)[C@@H](O)[C@@H]1O; experiment: uptake saturation in intact E. coli cells; residual kestose by HPAEC-PAD; type: cell-based, uncultured bacterium; details: I9min_PTS cells (E. coli EPI100, host EI and HPr/FPr complement), TBS pH 7.0, 37°C, transport
# Description: uptake saturation in intact E. coli cells; residual kestose by HPAEC-PAD on Dorea PTS_EIIBCA (I9 PTS_EIIBCA) | The affinity constants of kestose uptake by I9min_PTS cells (Km)
Molecule,Kd [1] [µM],Km [2] [µM]
OC[C@H]1O[C@@](CO)(OC[C@@]2(O[C@H]3O[C@H](CO)[C@@H](O)[C@H](O)[C@H]3O)O[C@H](CO)[C@@H](O)[C@@H]2O)[C@@H](O)[C@@H]1O [kestose],51 ± 12,–
"Dorea PTS_EIIBCA (I9 PTS_EIIBCA) (uncultured bacterium) (protein, full-length single multidomain protein (domains B, C, A; ten predicted transmembrane helices)) MDYRKTAQDILDHVGGSKNIASAAHCATRLRLVIADNKKVSKEALENIDGVKGVFEASGQLQIILGTGTVNKVFAEFIDIAGITASSKAEAKEAAAEKQNWFMRAIKLLGDIFVPIIPAIVASGFLMGIMNSLDFMNSNGFLHINTHSSIYVFANLFSNIAYTFLQILIAFSAAKAFGANQYLGAVIGMIMIHPSLQNAYTVATEGVQQTQSVFFGLFKIDMVGYQGHVIPVIIAVWILAVIEKKLHKIVPEVLDLFVTPLVSVFVTGYLTLSIVGPIFVWAENAILGAIQWMLTLPLGIGSLIMGGLYAPTVVTGIHQMYTAIDIGQLAKYGVTYWLPLASAANVAQGAAALAVGIKSKDKKIKSLALPSSLSAFMGITEPAIFGVNLRFFKPFIAGCIGGGCGALYASLVHLGAKGTGVTGIFGILLCLNQPLQYLIEMVIAVGVAFVISFLIYKDAEPKAATADAAETAAVENMETTDAVATADTTAETAEETLTSPVNGTQIPLAEVADETFASEMLGATVAVEPADGKIVAPCDGEVSNIFETGHAVCITTESGGELLIHIGIDTVKMDGKGFTKKVSDGDKVHAGDILVEADLEEIKNAGYQTTTMMILTNTDEFGNVTKAEPAEVKTTSKVMTLTK",–,266 ± 165

# Source: article PMC6952197, “Harvesting of Prebiotic Fructooligosaccharides by Nonbeneficial Human Gut Bacteria” (mSphere, 2020)
